Test results reported in patent US20220281848A1, “PYRAZOLE-SUBSTITUTED PYRROLIDINONES AS HERBICIDES” (FMC Corporation, priority 2019, published 2022).

System: plants
Experiment: Test D pre-emergence, other plants of Tables D1 and D3
Assay type: in vivo
Conditions: pre-emergence, 100=total damage, 0=no damage
Summary of the method: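 Damage was rated visually from 0 (none) to 100 (total), at 20 DAA for pre-emergence and 15 d for post-emergence. Plants grew from safener-treated seed in a glasshouse at 24/18° C. or 20/16° C. day/night, 65% humidity, watered twice daily.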

With `CCn1nc([C@H]2CN(C)C(=O)[C@@H]2C(=O)Nc2cccc(F)c2F)c2ccc(F)cc21` [Compound 4] the “damage to plant, BEAVA” value (rate 15, 20 DAA) was 0, the “damage to plant, BROTE” value (rate 15, 20 DAA) was 0 and the “damage to plant, BRSNN” value (rate 15, 20 DAA) was 0. The “damage to plant, CHEAL” value (rate 15, 20 DAA) was 0, the “damage to plant, GALAP” value (rate 15, 20 DAA) was 0 and the “damage to plant, HORVW” value (rate 15, 20 DAA) was 0. The “damage to plant, KCHSC” value (rate 15, 20 DAA) was 0, the “damage to plant, LOLPE” value (rate 15, 20 DAA) was 0 and the “damage to plant, POAAN” value (rate 15, 20 DAA) was 0. The “damage to plant, POLCO” value (rate 15, 20 DAA) was 0, the “damage to plant, SINAR” value (rate 15, 20 DAA) was 0 and the “damage to plant, STEME” value (rate 15, 20 DAA) was 0. For the same molecule, the “damage to plant, VERPE” value (rate 15, 20 DAA) was 0, the “damage to plant, ALOMY” value (rate 30, 20 DAA) was 0 and the “damage to plant, AVEFA” value (rate 30, 20 DAA) was 0. The “damage to plant, BEAVA” value (rate 30, 20 DAA) was 0, the “damage to plant, BROTE” value (rate 30, 20 DAA) was 0 and the “damage to plant, BRSNN” value (rate 30, 20 DAA) was 0. The “damage to plant, CHEAL” value (rate 30, 20 DAA) was 0, the “damage to plant, GALAP” value (rate 30, 20 DAA) was 0 and the “damage to plant, HORVW” value (rate 30, 20 DAA) was 0. The “damage to plant, KCHSC” value (rate 30, 20 DAA) was 0, the “damage to plant, LOLPE” value (rate 30, 20 DAA) was 0 and the “damage to plant, POAAN” value (rate 30, 20 DAA) was 0. The “damage to plant, POLCO” value (rate 30, 20 DAA) was 0, the “damage to plant, SINAR” value (rate 30, 20 DAA) was 0 and the “damage to plant, STEME” value (rate 30, 20 DAA) was 0. For the same molecule, the “damage to plant, VERPE” value (rate 30, 20 DAA) was 0, the “damage to plant, ALOMY” value (rate 60, 20 DAA) was 0 and the “damage to plant, AVEFA” value (rate 60, 20 DAA) was 0. For the same molecule, the “damage to plant, BEAVA” value (rate 60, 20 DAA) was 0, the “damage to plant, BROTE” value (rate 60, 20 DAA) was 0 and the “damage to plant, BRSNN” value (rate 60, 20 DAA) was 0. The “damage to plant, CHEAL” value (rate 60, 20 DAA) was 0, the “damage to plant, GALAP” value (rate 60, 20 DAA) was 0 and the “damage to plant, HORVW” value (rate 60, 20 DAA) was 0. The “damage to plant, KCHSC” value (rate 60, 20 DAA) was 0, the “damage to plant, LOLPE” value (rate 60, 20 DAA) was 0 and the “damage to plant, POAAN” value (rate 60, 20 DAA) was 40. The “damage to plant, POLCO” value (rate 60, 20 DAA) was 0, the “damage to plant, SINAR” value (rate 60, 20 DAA) was 0 and the “damage to plant, STEME” value (rate 60, 20 DAA) was 0. For the same molecule, the “damage to plant, VERPE” value (rate 60, 20 DAA) was 0, the “damage to plant, ALOMY” value (rate 130, 20 DAA) was 0 and the “damage to plant, AVEFA” value (rate 130, 20 DAA) was 0. The “damage to plant, BEAVA” value (rate 130, 20 DAA) was 0, the “damage to plant, BROTE” value (rate 130, 20 DAA) was 0 and the “damage to plant, BRSNN” value (rate 130, 20 DAA) was 0. The “damage to plant, CHEAL” value (rate 130, 20 DAA) was 0, the “damage to plant, GALAP” value (rate 130, 20 DAA) was 0 and the “damage to plant, HORVW” value (rate 130, 20 DAA) was 0. The “damage to plant, KCHSC” value (rate 130, 20 DAA) was 0, the “damage to plant, LOLPE” value (rate 130, 20 DAA) was 0 and the “damage to plant, POAAN” value (rate 130, 20 DAA) was 50. For the same molecule, the “damage to plant, POLCO” value (rate 130, 20 DAA) was 0, the “damage to plant, SINAR” value (rate 130, 20 DAA) was 0 and the “damage to plant, STEME” value (rate 130, 20 DAA) was 0. The “damage to plant, VERPE” value (rate 130, 20 DAA) was 0, the “damage to plant, ALOMY” value (rate 250, 20 DAA) was 0 and the “damage to plant, AVEFA” value (rate 250, 20 DAA) was 0. For the same molecule, the “damage to plant, BEAVA” value (rate 250, 20 DAA) was 0, the “damage to plant, BROTE” value (rate 250, 20 DAA) was 0 and the “damage to plant, BRSNN” value (rate 250, 20 DAA) was 0. The “damage to plant, CHEAL” value (rate 250, 20 DAA) was 0, the “damage to plant, GALAP” value (rate 250, 20 DAA) was 0 and the “damage to plant, HORVW” value (rate 250, 20 DAA) was 0. The “damage to plant, KCHSC” value (rate 250, 20 DAA) was 0, the “damage to plant, LOLPE” value (rate 250, 20 DAA) was 0 and the “damage to plant, POAAN” value (rate 250, 20 DAA) was 80. For the same molecule, the “damage to plant, POLCO” value (rate 250, 20 DAA) was 0, the “damage to plant, SINAR” value (rate 250, 20 DAA) was 0 and the “damage to plant, STEME” value (rate 250, 20 DAA) was 0. For the same molecule, the “damage to plant, VERPE” value (rate 250, 20 DAA) was 0, the “damage to plant, ALOMY” value (rate 500, 20 DAA) was 40 and the “damage to plant, AVEFA” value (rate 500, 20 DAA) was 10. For the same molecule, the “damage to plant, BEAVA” value (rate 500, 20 DAA) was 0, the “damage to plant, BROTE” value (rate 500, 20 DAA) was 10 and the “damage to plant, BRSNN” value (rate 500, 20 DAA) was 10. For the same molecule, the “damage to plant, CHEAL” value (rate 500, 20 DAA) was 0, the “damage to plant, GALAP” value (rate 500, 20 DAA) was 0 and the “damage to plant, HORVW” value (rate 500, 20 DAA) was 20. The “damage to plant, KCHSC” value (rate 500, 20 DAA) was 0, the “damage to plant, LOLPE” value (rate 500, 20 DAA) was 0 and the “damage to plant, POAAN” value (rate 500, 20 DAA) was 90. For the same molecule, the “damage to plant, POLCO” value (rate 500, 20 DAA) was 20, the “damage to plant, SINAR” value (rate 500, 20 DAA) was 30 and the “damage to plant, STEME” value (rate 500, 20 DAA) was 0. The “damage to plant, VERPE” value (rate 500, 20 DAA) was 0.
